Experimental data: US11090364B2, “Conjugates of a pharmaceutical agent and a moiety capable of binding to a glucose sensing protein” (SANOFI, priority 2016, dated 2021)

System: HepG2 cells
Assay: HepG2 assay: 14C 2-deoxy-D-glucose transport into HepG2 cells
Type: cell-based
Details: Homo sapiens, test compound 100 μM
Description: For measurement of ^14C 2-deoxy-D-glucose transport into HepG2 cells, cells were seeded in collagen treated 96-well plates (Cytostar-T Plates Perkin Elmer, 40.000 cells/200 μ/well) in medium complete (MEM W/GLUT-I, EARLES (Gibco #41090) /NEAA/PS/10% FCS) and grown for 48 hours. After starvation for 2 hours with MEM W/GLUT-I, EARLES (Gibco #41090)/NEAA/no serum 100 μl/well and washing twice with 200 μL KRB buffer, cells were stimulated in a dose dependent manner by adding 20 μL of test compound dilution 0-750 μM (7.5 times higher concentration than final) or 20 μL of 188 μM Cytochalasin B solution as negative control, to 80 μL KRB buffer and incubated for 30 minutes. After compound stimulation, the transport of ^14C 2-deoxy-D-glucose was started by adding of 50 μL ^14C 2-deoxy-D-glucose solution (250 μM 2-deoxy-D-glucose cold and 15 μM ^14C 2-deoxy-D-glucose 0.13 μCi/well) for 20 minutes. Transport was stopped by adding 50 μL/well 40 μM Cytochalasin B solution. Plates were measured in a 96-well Wallac Microbeta device. The cpm (counts per minute) values were used to determine the % inhibition values for the test compounds within each experiment, which then are averaged over the number of experiments performed.

| Structure (SMILES) | inhibition at 100 µM |
| --- | --- |
| CC(=O)O[C@@H]1O[C@H](C(=O)N2CCN(C)CC2)[C@@H](OC(C)=O)[C@H](OC(C)=O)[C@H]1OC(C)=O [Example 1, [(2S,3R,4S,5S,6S)-2,3,5-Triacetoxy-6-(4-methylpiperazine-1-carbonyl)tetrahydropyran-4-yl] acetate] | 6.32% |
| CCN1CCN(C(=O)[C@H]2O[C@@H](OC(C)=O)[C@H](OC(C)=O)[C@@H](OC(C)=O)[C@@H]2OC(C)=O)CC1 [Example 2, [(2S,3R,4S,5S,6S)-2,3,5-Triacetoxy-6-(4-ethylpiperazine-1-carbonyl)tetrahydropyran-4-yl] acetate] | 6.5% |
| CC(=O)O[C@@H]1O[C@H](C(=O)N2CCN(C(C)C)CC2)[C@@H](OC(C)=O)[C@H](OC(C)=O)[C@H]1OC(C)=O [Example 6, [(2S,3R,4S,5S,6S)-2,3,5-Triacetoxy-6-(4-isopropylpiperazine-1-carbonyl)tetrahydropyran-4-yl] acetate] | 7.75% |
| CC(=O)O[C@@H]1O[C@H](C(=O)N2CCN(C(C)(C)C)CC2)[C@@H](OC(C)=O)[C@H](OC(C)=O)[C@H]1OC(C)=O [Example 7, [(2S,3R,4S,5S,6S)-2,3,5-Triacetoxy-6-(4-tert-butylpiperazine-1-carbonyl)tetrahydropyran-4-yl] acetate] | 6.99% |
| C=CCN1CCN(C(=O)[C@H]2O[C@@H](OC(C)=O)[C@H](OC(C)=O)[C@@H](OC(C)=O)[C@@H]2OC(C)=O)CC1 [Example 8, [(2S,3R,4S,5S,6S)-2,3,5-Triacetoxy-6-(4-allylpiperazine-1-carbonyl)tetrahydropyran-4-yl] acetate] | 7.67% |
| CC(=O)O[C@@H]1O[C@H](C(=O)N2CCN(C3CCCCC3)CC2)[C@@H](OC(C)=O)[C@H](OC(C)=O)[C@H]1OC(C)=O [Example 9, [(2S,3R,4S,5S,6S)-2,3,5-Triacetoxy-6-(4-cyclohexylpiperazine-1-carbonyl)tetrahydropyran-4-yl] acetate] | 5.11% |
| CC(=O)O[C@@H]1O[C@H](C(=O)N2CCN(c3ccccc3)CC2)[C@@H](OC(C)=O)[C@H](OC(C)=O)[C@H]1OC(C)=O [Example 12, [(2S,3R,4S,5S,6S)-2,3,5-Triacetoxy-6-(4-phenylpiperazine-1-carbonyl)tetrahydropyran-4-yl] acetate] | 5.43% |
| CC(=O)O[C@@H]1O[C@H](C(=O)N2CCN(c3ccc(Cl)cc3)CC2)[C@@H](OC(C)=O)[C@H](OC(C)=O)[C@H]1OC(C)=O [Example 14, [(2S,3R,4S,5S,6S)-2,3,5-Triacetoxy-6-[4-(4-chlorophenyl)piperazine-1-carbonyl]tetrahydropyran-4-yl] acetate] | 5.67% |
| COc1ccccc1N1CCN(C(=O)[C@H]2O[C@@H](OC(C)=O)[C@H](OC(C)=O)[C@@H](OC(C)=O)[C@@H]2OC(C)=O)CC1 [Example 19, [(2S,3R,4S,5S,6S)-2,3,5-Triacetoxy-6-[4-(2-methoxyphenyl)piperazine-1-carbonyl]tetrahydropyran-4-yl] acetate] | 6.89% |
| CN1CCN(C(=O)[C@H]2OC(O)[C@H](O)[C@@H](O)[C@@H]2O)CC1 (stereo partly drawn) [Example 21, (4-Methylpiperazin-1-yl)-[(2S,3S,4S,5R)-3,4,5,6-tetrahydroxytetrahydropyran-2-yl]methanone] | 7.53% |
| CCN1CCN(C(=O)[C@H]2OC(O)[C@H](O)[C@@H](O)[C@@H]2O)CC1 (stereo partly drawn) [Example 22, (4-Ethylpiperazin-1-yl)-[(2S,3S,4S,5R)-3,4,5,6-tetrahydroxytetrahydropyran-2-yl]methanone] | 11.4% |
| CC(C)(C)N1CCN(C(=O)[C@H]2OC(O)[C@H](O)[C@@H](O)[C@@H]2O)CC1 (stereo partly drawn) [Example 27, (4-tert-Butylpiperazin-1-yl)-[(2S,3S,4S,5R)-3,4,5,6-tetrahydroxytetrahydropyran-2-yl]methanone] | 13.1% |
| C=CCN1CCN(C(=O)[C@H]2OC(O)[C@H](O)[C@@H](O)[C@@H]2O)CC1 (stereo partly drawn) [Example 28, (4-Allylpiperazin-1-yl)-[(2S,3S,4S,5R)-3,4,5,6-tetrahydroxytetrahydropyran-2-yl]methanone] | 9.95% |
| O=C([C@H]1OC(O)[C@H](O)[C@@H](O)[C@@H]1O)N1CCN(C2CCCCC2)CC1 (stereo partly drawn) [Example 29, (4-Cyclohexylpiperazin-1-yl)-[(2S,3S,4S,5R)-3,4,5,6-tetrahydroxytetrahydropyran-2-yl]methanone] | 18.4% |
| O=C([C@H]1OC(O)[C@H](O)[C@@H](O)[C@@H]1O)N1CCN(c2ccc(Cl)cc2)CC1 (stereo partly drawn) [Example 34, [4-(4-Chlorophenyl)piperazin-1-yl]-[(2S,3S,4S,5R)-3,4,5,6-tetrahydroxytetrahydropyran-2-yl]methanone] | 20.5% |
| O=C([C@H]1OC(O)[C@H](O)[C@@H](O)[C@@H]1O)N1CCN(c2ccc(Br)cc2)CC1 (stereo partly drawn) [Example 36, [4-(4-Bromophenyl)piperazin-1-yl]-[(2S,3S,4S,5R)-3,4,5,6-tetrahydroxytetrahydropyran-2-yl]methanone] | 20.6% |
| COc1ccc(N2CCN(C(=O)[C@H]3OC(O)[C@H](O)[C@@H](O)[C@@H]3O)CC2)cc1 (stereo partly drawn) [Example 37, [4-(4-Methoxyphenyl)piperazin-1-yl]-[(2S,3S,4S,5R)-3,4,5,6-tetrahydroxytetrahydropyran-2-yl]methanone] | 6.88% |
| COc1cccc(N2CCN(C(=O)[C@H]3OC(O)[C@H](O)[C@@H](O)[C@@H]3O)CC2)c1 (stereo partly drawn) [Example 38, [4-(3-Methoxyphenyl)piperazin-1-yl]-[(2S,3S,4S,5R)-3,4,5,6-tetrahydroxytetrahydropyran-2-yl]methanone] | 12.7% |
| COc1ccccc1N1CCN(C(=O)[C@H]2OC(O)[C@H](O)[C@@H](O)[C@@H]2O)CC1 (stereo partly drawn) [Example 39, [4-(2-Methoxyphenyl)piperazin-1-yl]-[(2S,3S,4S,5R)-3,4,5,6-tetrahydroxytetrahydropyran-2-yl]methanone] | 11% |
| O=C([C@H]1OC(O)[C@H](O)[C@@H](O)[C@@H]1O)N1CCN(Cc2ccc3c(c2)OCO3)CC1 (stereo partly drawn) [Example 40, [4-(1,3-Benzodioxol-5-ylmethyl)piperazin-1-yl]-[(2S,3S,4S,5R)-3,4,5,6-tetrahydroxytetrahydropyran-2-yl]methanone] | 10.1% |
| CC(=O)O[C@@H]1OC(CN2CCN(c3ccccc3)CC2)=C[C@H](OC(C)=O)[C@H]1OC(C)=O [Example 45, [(2S,3R,4S)-2,3-Diacetoxy-6-[(4-phenylpiperazin-1-yl)methyl]-3,4-dihydro-2H-pyran-4-yl] acetate] | 29.3% |
| CC(=O)O[C@@H]1OC(CN2CCN(C/C=C/c3ccccc3)CC2)=C[C@H](OC(C)=O)[C@H]1OC(C)=O [Example 46, [(2S,3R,4S)-2,3-Diacetoxy-6-[[4-[(E)-cinnamyl]piperazin-1-yl]methyl]-3,4-dihydro-2H-pyran-4-yl] acetate] | 8.76% |
| CC(=O)O[C@@H]1OC(CN2CCN(Cc3ccc4c(c3)OCO4)CC2)=C[C@H](OC(C)=O)[C@H]1OC(C)=O [Example 47, [(2S,3R,4S)-2,3-Diacetoxy-6-[[4-(1,3-benzodioxol-5-ylmethyl)piperazin-1-yl]methyl]-3,4-dihydro-2H-pyran-4-yl] acetate] | 13.8% |
| CC(=O)O[C@@H]1OC(CN2CCN(c3ccc(Cl)cc3)CC2)=C[C@H](OC(C)=O)[C@H]1OC(C)=O [Example 48, [(2S,3R,4S)-2,3-Diacetoxy-6-[[4-(4-chlorophenyl)piperazin-1-yl]methyl]-3,4-dihydro-2H-pyran-4-yl] acetate] | 28.8% |
| CC(=O)O[C@@H]1OC(CN2CCN(c3ccccc3Cl)CC2)=C[C@H](OC(C)=O)[C@H]1OC(C)=O [Example 49, [(2S,3R,4S)-2,3-Diacetoxy-6-[[4-(2-chlorophenyl)piperazin-1-yl]methyl]-3,4-dihydro-2H-pyran-4-yl] acetate] | 19.9% |
| COc1ccc(N2CCN(CC3=C[C@H](OC(C)=O)[C@@H](OC(C)=O)[C@H](OC(C)=O)O3)CC2)cc1 [Example 50, [(2S,3R,4S)-2,3-Diacetoxy-6-[[4-(4-methoxyphenyl)piperazin-1-yl]methyl]-3,4-dihydro-2H-pyran-4-yl] acetate] | 13.8% |
| COc1cccc(N2CCN(CC3=C[C@H](OC(C)=O)[C@@H](OC(C)=O)[C@H](OC(C)=O)O3)CC2)c1 [Example 51, [(2S,3R,4S)-2,3-Diacetoxy-6-[[4-(3-methoxyphenyl)piperazin-1-yl]methyl]-3,4-dihydro-2H-pyran-4-yl] acetate] | 17.9% |
| COc1ccccc1N1CCN(CC2=C[C@H](OC(C)=O)[C@@H](OC(C)=O)[C@H](OC(C)=O)O2)CC1 [Example 52, [(2S,3R,4S)-2,3-Diacetoxy-6-[[4-(2-methoxyphenyl)piperazin-1-yl]methyl]-3,4-dihydro-2H-pyran-4-yl] acetate] | 14.6% |
| CC(=O)O[C@@H]1OC(CN2CCN(c3ccc(Br)cc3)CC2)=C[C@H](OC(C)=O)[C@H]1OC(C)=O [Example 53, [(2S,3R,4S)-2,3-Diacetoxy-6-[[4-(4-bromophenyl)piperazin-1-yl]methyl]-3,4-dihydro-2H-pyran-4-yl] acetate] | 23.9% |
| CN(C)c1cccc2c(S(=O)(=O)NCc3cn([C@H]4C(O)O[C@H](CO)[C@@H](O)[C@@H]4O)nn3)cccc12 (stereo partly drawn) [Example 54, 5-(Dimethylamino)-N-[[1-[(3R,4R,5S,6R)-2,4,5-trihydroxy-6-(hydroxymethyl)tetrahydropyran-3-yl]triazol-4-yl]methyl]naphthalene-1-sulfonamide] | 10.5% |
